Measured values reported in patent US11801228B2, “Modified guanidine-containing polymers for biologic delivery” (THE FLORIDA INTERNATIONAL UNIVERSITY BOARD OF TRUSTEES, priority 2022, dated 2023).

B1: RNase A: 13.7 kDa enzyme capable of degrading RNA chains (protein, UniProt P61823 27-150, looked up)
Ribonuclease pancreatic: KETAAAKFERQHMDSSTSAASSSNYCNQMMKSRNLTKDRCKPVNTFVHESLADVQAVCSQKNVACKNGQTNCYQSYSTMSITDCRETGSSKYPNCAYKTTQANKHIIVACEGNPYVPVHFDASV

Tested on: HeLa cells
Assay: Functional protein delivery (MTT with PN/enzyme complexes)
Type: cell-based
Conditions: no carrier
Protocol: Final concentrations of 40, 20, 10, and 5 μM were added into the complete media by dilution of the polymer stock solutions. After addition of the samples, cells were incubated for 18 h prior to treatment with 10 μL of methylthiazole tetrazolium (MTT) (5 mg/mL in PBS) and incubated for 4 h at 37° C. After incubation, 200 μL of medium was gently removed and 100 μL of biological grade DMSO was added to solubilize the purple formazan crystals. Absorbance was measured by microwell plate reader. Cell viability was determined as a function of absorbance of each sample relative to control wells. All measurements represent the average of three independent measurements+/−standard deviation.
MTT assay was performed with PN/enzyme complexes are described previously. In short, serial dilutions of saporin or RNase were prepared and complexes with various PNs. For serum-containing media, complexes were added to HeLa cells and incubated overnight prior to MTT treatment. For serum-free experiments, complexes were added in DMEM for 4 h and the media was replaced with complete media overnight prior to MTT treatment.

Row | Molecule | toxicity of free enzyme on HeLa cells
1 | Saporin | no toxicity
2 | B1 | no toxicity
